Patent publication US7345030B2, “Use of n-acetyl-d-aminoglycosamine in treatment of organ lesions related to toxicosis of drugs or chemicals” (priority 2003, dated 2008)

Columns and labels:
[1] = system: Kunming mice fed with rogor; test: Rogor poisoning test; format: in vivo; conditions: 10 mice, i.p. 5 g/100 ml aqueous solution
Method: 30 Kunming mice were randomly divided into two groups, i.e., 15 mice in test group (I) and 15 mice in test group (II), and another 15 mice were used as control. Each mouse was fed with methanol in a dose of 0.2 ml/20 g bodyweight. […] The mice of the test group (I) were intra-peritoneally injected with an aqueous solution of N-acetyl-D-glucosamine having a concentration of 0.1 g/ml in a dose of 0.1 ml/20 g bodyweight, just after they were fed with methanol. […] The mice of the test group (II) were intra-peritoneally injected with an aqueous solution of N-acetyl-D-glucosamine having a concentration of 0.1 g/ml in a dose of […], just after they were fed with methanol. […] 2. Rogor Poisoning Test 30 Kunming mice were randomly divided into three groups, i.e., 10 mice in control group, 10 mice in test group (I) and 10 mice in test group (II). The mice were orally fed with 10000 times diluted rogor stock solution (commercially obtained from Chongqing Agriculture Chemicals Group, 500 ml/bottle, standard: GB15583-1995) in a dose of 0.5 ml per mouse for consecutive 3 days. […] The mice of the test groups were treated by intra-peritoneal injection of an aqueous solution of N-acetyl-D-glucosamine having a concentration of 5 g/100 ml in a dose of 0.2 ml for the test group (I) and a dose of 2 ml for the test group (II). […] 3. […]

mice = test: Reproduction test; format: in vivo; conditions: mice fed 7 mg/kg for 3 generations
Acute toxicity test = format: in vivo
Source text: (§1) The toxicological test of the compound of formula (I) includes: • 1. Acute toxicity test: including tests of oral administration, intravenous injection administration, and maximum limit amount for administration; • 2. Ames test; • 3. Micronucleus test of mouse bone marrow cell; • 4. Abnormality test of mouse sperm; • 5. Aberration test of mouse testis chromosome; • 6. Chronic lethal test; • 7. Sub-chronic toxicity (feed for 90 days) test; • 8. Traditional deformity-inducing test.

[2] = system: Kunming mice fed with methanol; test: Methanol poisoning test; format: in vivo; conditions: 15 mice, i.p. 0.1 g/ml aqueous solution
Method: 1. Methanol Poisoning Test
(§2) 30 Kunming mice were randomly divided into two groups, i.e., 15 mice in test group (I) and 15 mice in test group (II), and another 15 mice were used as control. Each mouse was fed with methanol in a dose of 0.2 ml/20 g bodyweight. […] The mice of the test group (I) were intra-peritoneally injected with an aqueous solution of N-acetyl-D-glucosamine having a concentration of 0.1 g/ml in a dose of 0.1 ml/20 g bodyweight, just after they were fed with methanol. […] The mice of the test group (II) were intra-peritoneally injected with an aqueous solution of N-acetyl-D-glucosamine having a concentration of 0.1 g/ml in a dose of […], just after they were fed with methanol. […] 2. Rogor Poisoning Test 30 Kunming mice were randomly divided into three groups, i.e., 10 mice in control group, 10 mice in test group (I) and 10 mice in test group (II). The mice were orally fed with 10000 times diluted rogor stock solution (commercially obtained from Chongqing Agriculture Chemicals Group, 500 ml/bottle, standard: GB15583-1995) in a dose of 0.5 ml per mouse for consecutive 3 days. […] The mice of the test groups were treated by intra-peritoneal injection of an aqueous solution of N-acetyl-D-glucosamine having a concentration of 5 g/100 ml in a dose of 0.2 ml for the test group (I) and a dose of 2 ml for the test group (II). […] 3. Lead Poisoning Test 30 Kunming mice were made as lead poisoning models by a method of feeding litharge. […] The mice of the test group (I) were treated by intra-peritoneal injection of N-acetyl-D-glucosamine in a dose of 0.2 ml×10% (weight/volume), and the mice of the test group (II) were treated by intra-peritoneal injection with N-acetyl-D-glucosamine in a dose of 2 ml×10% (weight/volume). The death rate of mice was separately 7/10 and 2/10 within 3 days, and the death rate of mice was 1/3 and 0/8 within the following 4 days. […] According to the above examples, N-acetyl-D-glucosamine can effectively eliminate toxic effects of at least toxicants such as metal ions, organophosphorus pesticides, methanol, etc. that have different action mechanisms.

[3] = Long-period toxicity test; format: in vivo; conditions: maximum dosage up to 1 g/kg, treatment and observation for four weeks
Source text: as §1

[4] = system: Kunming mice lead poisoning models (litharge); test: Lead poisoning test; format: in vivo
Method: as §2

Proteus Mirabilis = test: Promoting wave test (bio-wave model); format: cell-based; conditions: final concentration 0.5% in LB plate, 37° C., 9 hours, compared with control sample
Source text: 1. Experimental Materials and Method:
1.1 Sample: Pure Compound of Formula (I)
1.2 Experimental Materials:
• Strain: Proteus Mirabilis that meets the following biochemical reaction characteristics: dynamics (+), urease (+), lactose (−), glucose (+), H2S (−), phenylalanine deaminase (+). • Culture medium: modified LB culture medium (components: 1% tryptones, 0.5% yeast extract, 1% sodium chloride, 0.1% glucose, 0.002% TTC, and pH=7.2 to 7.4). 1.3 Experimental Method: • Control sample: the Proteus Mirabilis were inoculated at the center of LB plate, and incubated at 37° C. for 9 hours; • Test sample: the compound of formula (I) with a final concentration of 0.5% was added to the LB plate, then the Proteus Mirabilis were inoculated by the same method, and cultured at 37° C. for 9 hours. 2. […] It is anticipated that this wave-promoting function could treat organ lesions caused by toxicants and drugs.

[5] = test group (I), 0.1 ml/20 g bodyweight
[6] = test group (II), 2 ml/20 g bodyweight
[7] = test group (I), i.p. 0.2 ml×10% (weight/volume)
[8] = test group (II), i.p. 2 ml×10% (weight/volume)

Structure (SMILES): CC(=O)N[C@@H]1[C@@H](O)[C@H](O)[C@@H](CO)O[C@H]1O [compound of formula (I), N-acetyl-D-glucosamine]
- mice died ([1]; test group (I), 0.2 ml): 4 mice
- mice died ([1]; test group (II), 2 ml): 1 mouse
- influence on pregnancy, birth, nurse and growth of baby mice (mice): no influence
- dosage at which the acute toxicosis reaction had not appeared (Acute toxicity test): more than 2 g/kg
- mice sequentially died [2, 5]: 5 mice
- mice with obvious psychiatric symptoms [2, 5]: 2 mice
- mice blind after 2 hours ([2]; test group (I), 0.1 ml/20 g bodyweight, just after methanol 0.2 ml/20 g): 8 mice
- blind mice [2, 6]: no mouse was blind
- mice died within 12 hours [2, 6]: 2 mice
- mice with delirium and myasthenia of limbs [2, 6]: 4 mice
- intoxication reaction in long-period toxicity test [3]: no intoxication reaction
- death rate within 3 days [4, 7]: 7/10
- death rate within the following 4 days [4, 7]: 1/3
- death rate within 3 days [4, 8]: 2/10
- death rate within the following 4 days [4, 8]: 0/8
- wave pattern of the colony (bio-wave promoting function) (Proteus Mirabilis): many fine waves on each ring
